Data: ChEMBL document CHEMBL3352754, “Bicyclic tetrapeptides as potent HDAC inhibitors: effect of aliphatic loop position and hydrophobicity on inhibitory activity” (Bioorg Med Chem, 2014)
Square brackets hold non-standard residues; d marks the D form. Peptide text beside a SMILES is read from it. * marks the point of attachment. Asu = N[C@@H](CCCCCC(=O)O)C(=O)O; NHOH = ON*

Experiments:
[1] = Retention time by HPLC method; assay type: physicochemical
Histone deacetylase 1 = Histone deacetylase 1 (Homo sapiens, UniProt Q13547); assay: Inhibition of human HDAC1 expressed in HEK293T cells assessed as aminomethyl coumarin release using Ac-KGLGK(Ac)-MCA) substrate after 30 mins by FLIPR method; assay type: cell-based, HEK-293T
Histone deacetylase 4 = Histone deacetylase 4 (Homo sapiens, UniProt P56524); assay: Inhibition of human HDAC4 expressed in HEK293T cells assessed as aminomethyl coumarin release using Ac-KGLGK(Ac)-MCA) substrate after 30 mins by FLIPR method; assay type: cell-based; conditions: hek-293t
[2] = biological target: T1, Protein deacetylase HDAC6 (Mus musculus, UniProt Q9Z2V5); assay: Inhibition of mouse HDAC6 expressed in HEK293T cells assessed as aminomethyl coumarin release using Ac-KGLGK(Ac)-MCA) substrate after 30 mins by FLIPR method; assay type: cell-based, HEK-293T
T1 sequence (Q9Z2V5 whole entry): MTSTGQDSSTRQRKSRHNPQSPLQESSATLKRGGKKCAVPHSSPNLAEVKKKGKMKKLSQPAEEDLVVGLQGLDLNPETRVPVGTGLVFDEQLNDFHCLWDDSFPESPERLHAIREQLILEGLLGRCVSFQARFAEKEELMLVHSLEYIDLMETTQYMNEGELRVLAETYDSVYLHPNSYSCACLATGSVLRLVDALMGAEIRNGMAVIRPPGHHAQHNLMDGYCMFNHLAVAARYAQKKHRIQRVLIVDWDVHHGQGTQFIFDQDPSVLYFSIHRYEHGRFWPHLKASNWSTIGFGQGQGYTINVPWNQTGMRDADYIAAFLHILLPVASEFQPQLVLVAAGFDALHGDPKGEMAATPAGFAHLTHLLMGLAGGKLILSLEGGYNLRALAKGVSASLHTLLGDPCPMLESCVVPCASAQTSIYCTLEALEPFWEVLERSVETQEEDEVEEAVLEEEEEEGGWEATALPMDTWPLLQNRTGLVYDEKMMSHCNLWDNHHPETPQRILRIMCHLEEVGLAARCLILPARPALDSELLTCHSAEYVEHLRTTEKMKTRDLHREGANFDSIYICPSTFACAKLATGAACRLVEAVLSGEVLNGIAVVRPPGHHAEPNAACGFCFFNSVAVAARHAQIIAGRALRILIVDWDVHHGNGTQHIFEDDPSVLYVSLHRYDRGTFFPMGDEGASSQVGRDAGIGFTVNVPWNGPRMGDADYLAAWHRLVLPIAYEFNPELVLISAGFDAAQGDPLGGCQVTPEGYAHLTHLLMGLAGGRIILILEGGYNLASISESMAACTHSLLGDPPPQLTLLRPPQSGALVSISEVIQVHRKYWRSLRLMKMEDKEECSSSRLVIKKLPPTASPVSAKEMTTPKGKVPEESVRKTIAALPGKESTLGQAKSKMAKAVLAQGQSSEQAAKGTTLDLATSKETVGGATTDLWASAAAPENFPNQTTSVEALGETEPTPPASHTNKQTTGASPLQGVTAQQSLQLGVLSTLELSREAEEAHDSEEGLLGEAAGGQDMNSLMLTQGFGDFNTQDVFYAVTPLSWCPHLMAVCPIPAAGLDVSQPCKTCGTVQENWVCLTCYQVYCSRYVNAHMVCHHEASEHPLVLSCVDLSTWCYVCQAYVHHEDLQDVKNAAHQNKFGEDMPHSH

[3] = Selectivity index, ratio of IC50 for mouse HDAC6 to IC50 for human HDAC1
Mv1Lu = assay: Inhibition of HDAC in mink Mv1Lu cells expressing human wild-type p21 promoter luciferase fusion plasmid assessed as drug level inducing 10-fold higher luciferase activity by p21 promoter assay relative to baseline; assay type: cell-based; conditions: Neovison vison

Chain of Histone deacetylase 4 (P56524 whole entry): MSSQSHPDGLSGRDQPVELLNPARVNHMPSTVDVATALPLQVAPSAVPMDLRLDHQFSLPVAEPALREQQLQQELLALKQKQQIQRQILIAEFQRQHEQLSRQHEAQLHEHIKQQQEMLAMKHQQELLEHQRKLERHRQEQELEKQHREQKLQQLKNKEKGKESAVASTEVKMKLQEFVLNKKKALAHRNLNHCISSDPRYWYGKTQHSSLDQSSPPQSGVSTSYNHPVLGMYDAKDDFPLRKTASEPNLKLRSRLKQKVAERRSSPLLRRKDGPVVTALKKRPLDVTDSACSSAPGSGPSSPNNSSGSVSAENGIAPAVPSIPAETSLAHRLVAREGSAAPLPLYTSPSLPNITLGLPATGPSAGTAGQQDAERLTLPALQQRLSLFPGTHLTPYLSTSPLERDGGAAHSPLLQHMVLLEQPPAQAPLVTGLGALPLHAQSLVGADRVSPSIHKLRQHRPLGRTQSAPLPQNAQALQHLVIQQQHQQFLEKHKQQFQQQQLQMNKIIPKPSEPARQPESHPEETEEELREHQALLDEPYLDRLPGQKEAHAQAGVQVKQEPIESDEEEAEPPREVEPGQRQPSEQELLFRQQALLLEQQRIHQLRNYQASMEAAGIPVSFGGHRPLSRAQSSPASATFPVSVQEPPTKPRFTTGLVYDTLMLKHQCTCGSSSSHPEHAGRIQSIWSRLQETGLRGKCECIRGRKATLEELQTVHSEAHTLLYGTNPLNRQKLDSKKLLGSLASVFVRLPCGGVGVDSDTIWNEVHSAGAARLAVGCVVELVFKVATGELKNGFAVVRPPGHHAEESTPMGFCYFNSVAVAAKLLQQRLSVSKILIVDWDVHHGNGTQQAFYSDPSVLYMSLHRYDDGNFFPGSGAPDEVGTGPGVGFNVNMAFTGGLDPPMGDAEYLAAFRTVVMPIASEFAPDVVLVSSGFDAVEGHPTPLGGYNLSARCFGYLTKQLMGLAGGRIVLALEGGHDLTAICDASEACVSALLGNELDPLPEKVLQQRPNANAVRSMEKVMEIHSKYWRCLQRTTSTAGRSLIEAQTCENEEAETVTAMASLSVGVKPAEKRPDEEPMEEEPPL
Chain of Histone deacetylase 1 (Q13547 whole entry): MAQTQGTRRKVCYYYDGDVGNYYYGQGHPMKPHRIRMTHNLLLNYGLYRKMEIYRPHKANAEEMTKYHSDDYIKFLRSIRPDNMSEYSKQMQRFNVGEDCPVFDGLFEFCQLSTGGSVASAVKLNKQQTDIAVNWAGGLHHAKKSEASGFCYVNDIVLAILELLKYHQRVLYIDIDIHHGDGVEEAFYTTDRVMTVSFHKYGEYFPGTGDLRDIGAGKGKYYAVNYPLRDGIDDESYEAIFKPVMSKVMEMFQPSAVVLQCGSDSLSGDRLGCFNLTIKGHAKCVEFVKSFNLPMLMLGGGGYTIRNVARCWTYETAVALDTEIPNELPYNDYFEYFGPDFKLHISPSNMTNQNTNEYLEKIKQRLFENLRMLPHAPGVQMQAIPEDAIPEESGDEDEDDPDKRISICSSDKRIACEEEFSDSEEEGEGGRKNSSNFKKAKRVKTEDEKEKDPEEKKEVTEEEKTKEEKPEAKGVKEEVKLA

SMILES	Retention_time [1]	IC50 (Histone deacetylase 1)	IC50 (Histone deacetylase 4)	IC50 [2]	Ratio IC50 [3]	EC1000 (Mv1Lu)
O=C(CCCCC[C@@H]1NC(=O)[C@H]2CCCCCCCCCC[C@H](NC(=O)[C@H]3CCCN3C1=O)C(=O)N2)NO	7.06 min	25 nM	31 nM	490 nM	19.6	58 nM
CCCCC[C@@H]1NC(=O)[C@H](CCCCCC(=O)NO)NC(=O)[C@H]2CCCN2C(=O)[C@H](CCCCC)NC1=O	6.55 min	37 nM	15 nM	140 nM	3.7	80 nM
O=C(CCCCC[C@@H]1NC(=O)[C@H]2CCCN2C(=O)[C@@H]2CCCCCCCCCC[C@@H](NC1=O)C(=O)N2)NO	6.03 min	–	–	410 nM	45.1	7.2 nM
CCCCC[C@@H]1NC(=O)[C@H]2CCCN2C(=O)[C@H](CCCCCC(=O)NO)NC(=O)[C@@H](CCCCC)NC1=O	7.67 min	43 nM	43 nM	570 nM	13.3	80 nM
O=C(CCCCC[C@@H]1NC(=O)[C@H]2CCCN2C(=O)[C@@H]2CCOCCCCOCC[C@@H](NC1=O)C(=O)N2)NO	4.31 min	31 nM	41 nM	240 nM	7.7	2200 nM
CC[C@H](C)[C@@H]1NC(=O)[C@@H](Cc2ccc(OC)cc2)NC(=O)[C@H](CCCCCC(=O)NO)NC(=O)[C@H]2CCCN2C1=O (cyclo([Asu](NHOH)[dY](Me)I[dP]))	–	0.4 nM	3 nM	13 nM	32.5	22 nM
CCCCC[C@@H]1NC(=O)[C@@H](CCCCC)NC(=O)[C@H](CCCCCC(=O)NO)NC(=O)[C@H]2CCCN2C1=O	7.51 min	–	–	340 nM	13.6	13 nM
O=C(CCCCC[C@@H]1NC(=O)[C@H]2CCCN2C(=O)[C@@H]2CCCCCCCCCC[C@H](NC1=O)C(=O)N2)NO	5.8 min	25 nM	26 nM	230 nM	9.2	510 nM
